Measured values published in publication PMC3283556, “The Activities of Current Antimalarial Drugs on the Life Cycle Stages of Plasmodium: A Comparative Study with Human and Rodent Parasites” (PLoS Medicine, 2012).
Entries after “also recorded” stand apart in the source; their conditions may differ.

Key:
[1] = design: method as in PMID 22759078, PMID 17053895, PMID 18694333, PMID 18840754, PMID 19776738; settings: human blood, therapeutic / relevant doses; cited from earlier work
[2] = tested on: P. falciparum mature gametocytes / male gamete exflagellation; assay: P. falciparum exflagellation assay; assay type: cell-based, Plasmodium falciparum; settings: for effect on exflagellation (words): 10 µM, 24 h exposure of mature gametocytes
[3] = tested on: P. falciparum asexual blood stage parasites (strains NF54, D6, K1, W2, 7G8, TM90C2A, V1/S); assay: [3H]-hypoxanthine incorporation growth inhibition assay, asexual blood stage; assay type: cell-based, Plasmodium falciparum; settings: Plasmodium falciparum
[4] = tested on: P. falciparum oocyst formation; assay: Standard membrane feed assay, P. falciparum oocysts in A. stephensi; assay type: in vivo, Plasmodium falciparum; settings: 10 µM, gametocytes exposed 24 h before feeding
Experimental: Gametocyte cultures were produced according to the same protocol as the Pf exflagellation assay. Pooled gametocyte cultures were evenly divided between compounds in fresh medium and incubated at 37°C for 24 h. The parasite pellets were then resuspended in fresh RBCs and human serum treated with the compounds to a 50% haematocrit and immediately fed to mosquitoes as described above and then maintained at 27°C/60%RH for 10–12 d before dissection and counting.
(§1) Figure 3 The transmission-blocking potential of selected antimalarials in three bioassays that cover different phases of Plasmodium vector stage development. (A) Assays examined exflagellation (P. falciparum), ookinete formation (P. berghei), or oocyst formation (P. falciparum). All antimalarials were screened at 10 µM. (B) The biological content of the in vitro P. berghei ookinete assay spans gamete formation, fertilization, zygote development, and ookinete formation. Ookinete formation was insensitive to most of the antimalarials tested. […] (D) The in vitro P. falciparum exflagellation assay exposes mature gametocytes to antimalarials for 24 h before triggering exflagellation. […] All experiments in triplicate. (E) The in vivo P. falciparum oocyst assay differs from the P. berghei oocyst assay in that mature gametocytes were exposed to the antimalarials in culture for 24 h before feeding to mosquitoes. […] NPC1161-B, lumefantrine, halofantrine, and mefloquine +RS isomer were also active. (n = 4–61 observations; average ± standard error of the mean [SEM]).

Plasmodium oocysts = assay: Oocyst development / sporogony, Plasmodium species not stated at the place; assay type: in vivo; settings: for inhibition at 10 µM: Plasmodium, box linked to oocysts, read-out: Inhibition at 10 μM (oocysts, Figure 5); for effect on sporogony / oocyst production: species not given
Experimental: (§2) Membrane feeds were performed as described previously. Briefly, PbGFPcon-infected mouse blood was mixed with compounds, immediately placed into membrane feeders (39°C) and offered for 30 min to 80–100 overnight-starved A. stephensi (SDA 500 strain). After 7–9 d at 19°C/80%RH, mosquito midguts were dissected out. Midguts were fixed with paraformaldehyde and oocyst number was determined microscopically by semi-automated analysis as previously described.
Gametocyte cultures were produced according to the same protocol as the Pf exflagellation assay. Pooled gametocyte cultures were evenly divided between compounds in fresh medium and incubated at 37°C for 24 h. The parasite pellets were then resuspended in fresh RBCs and human serum treated with the compounds to a 50% haematocrit and immediately fed to mosquitoes as described above and then maintained at 27°C/60%RH for 10–12 d before dissection and counting. […]

[5] = tested on: P. berghei ookinete formation; assay: P. berghei ookinete development assay; assay type: cell-based, Plasmodium berghei; settings: 10 µM
Experimental: Compounds and P. berghei gametocyte-infected blood were dispensed in a 96-well plate containing ookinete medium. After 24 h at 19°C, Giemsa-stained ookinetes were counted under the microscope (×40) as previously described,[28].
as §1

[6] = tested on: P. berghei oocyst formation; assay: Standard membrane feed assay, P. berghei oocysts in A. stephensi; assay type: in vivo, Plasmodium berghei; settings: for transmission-blocking effect on P. berghei oocysts (words): 10 µM
Experimental: as §2
Supplementary file pmed.1001169.s001.tif: Figure S1 The transmission-blocking potential of selected compounds against P. berghei in standard membrane feeding assays. All antimalarials were screened at 10 µM in triplicate in independent experiments. The biological content of this assay spans gamete formation through to occyst development all within the gut of the mosquito. […] (TIF) Click here for additional data file.

[7] = tested on: P. falciparum and P. vivax; design: method as in personal communication, MMV; settings: phase IIa, P. falciparum and P. vivax patients; ref personal communication, MMV; cited from earlier work

Structure (SMILES)	Cmax [1] [µM]	effect on exflagellation (words) [2]	effect on exflagellation (words) ([2]; listed as Lumefantrine)	IC50 [3] [nM]	transmission-blocking effect on P. falciparum oocysts (words) [4]	transmission-blocking effect on P. falciparum oocysts (words) ([4]; listed as Lumefantrine)	inhibition at 10 µM (Plasmodium oocysts) [%]	effect on sporogony / oocyst production (Plasmodium oocysts)	effect on ookinete formation [5]	transmission-blocking effect on P. berghei oocysts (words) [6]	transmission-blocking effect on P. berghei oocysts (words) ([6]; listed as Lumefantrine)	inhibition at 10 µM ([6]; Plasmodium berghei) [%]	inhibition at 10 µM ([2]; Plasmodium falciparum, 10 μM, box linked to gametocytes/exflagellation, read-out: Inhibition at 10 μM (gametocytes/exflagellation, Figure 5)) [%]	clinical efficacy [7]
CCCCN(CCCC)CC(O)c1cc(Cl)cc2c1-c1ccc(Cl)cc1/C2=C/c1ccc(Cl)cc1 (centres unmarked) [lumefantrine]	13.9	only moderate or no inhibition of exflagellation	little activity	< 4	active; also recorded: impaired sporogony	showed activity	> 90	impairs development in the vector	little activity	impaired sporogony; also recorded: most notable transmission-blocking activity	showed activity	> 90		
c1cc([C@H]2CC[C@]3(CC2)OO[C@]2(O3)C3CC4CC(C3)CC2C4)ccc1OCCN1CCOCC1 [OZ439]		strong inhibitors of gametocyte maturation/gamete formation					> 90	impact sporogony					> 60	equivalent efficacy in the treatment of P. falciparum and P. vivax patients
